The values below come from patent US7498343B2, “Mycobacterial inhibitors” (priority 2002, dated 2009).

Experiment [1] concerns Mycobacterium tuberculosis (strain H37RV). The experiment is described as follows: In-vitro method for testing compounds against M. tuberculosis (resazurin growth inhibition, MIC). In kind it is cell-based. The note with it: MIC data representing IC90's, 7 days incubation, resazurin fluorescence. For orientation: Resazurin is reduced to fluorescent resorufin, in cell work by metabolically active cells.

Another experiment deals with M. Smegmatis ATCC607. Kind of experiment: In-vitro method for testing compounds for anti-bacterial activity against strain M. smegmatis ATCC607 (Alamar Blue growth inhibition). It counts as cell-based. The note with it: M. smegmatis ATCC607; pIC50 = -logIC50, IC50 in M, 50% inhibitory concentration for bacterial growth; 48 hours incubation. On the procedure: C.2. In-vitro Method for Testing Compounds for Anti-bacterial Activity Against Strain M. Smegmatis ATCC607. […] Subsequently, stock solutions (7.8×final test concentration) of compounds were added in 45 μl volumes to a series of duplicate wells in column 2 so as to allow evaluation of their effects on bacterial growth. Serial five-fold dilutions (45 μl in 180 μl) were made directly in the microtiter plates from column 2 to 11 using a customised robot system (Zymark Corp., Hopkinton, Mass.). Pipette tips were changed after every 3 dilutions to minimize pipetting errors with high hydrophobic compounds. Untreated control samples with (column 1) and without (column 12) inoculum were included in each microtiter plate. Approximately 250 CFU per well of bacteria inoculum, in a volume of 100 μl in 2.8×Mueller-Hinton broth medium, was added to the rows […]. The same volume of broth medium without inoculum was added to column 12 in row A to H. The cultures were incubated at 37° C. for 48 hours in a humidified 5% CO2 atmosphere (incubator with open air valve and continuous ventilation). At the end of incubation, two days after inoculation, the bacterial growth was quantitated fluorometrically. Therefore Alamar Blue (10×) was added to all wells in a volume of 20 μl and plates were incubated for another 2 hours at […] The fluorescence was read in a computer-controlled fluorometer (Cytofluor, Biosearch) at an excitation wavelength of 530 nm and an emission wavelength of 590 nm (gain 30). The % growth inhibition achieved by the compounds was calculated according to standard methods.

For orientation: pIC50 means the IC50 on a negative log10 scale, so that one unit is a factor of ten. For `COc1nc2ccccc2cc1C(c1ccccc1)C(O)(CCN(C)C)c1cccc2ccccc12` (racemic) [Compound 92], in experiment [1], the MIC was found to be 7.55 microgram/ml. The compound also displayed a pIC50 with M. Smegmatis ATCC607 of 6.5.

In experiment [1], `COc1nc2ccccc2cc1C(c1ccccc1)C(O)(CCN(C)C)c1cccc(F)c1` (racemic) [Compound 93] yielded an MIC of 35.31 microgram/ml. In addition, the pIC50 in the experiment on M. Smegmatis ATCC607 is reported as 4.8.

Compound `COc1nc2ccccc2cc1C(c1ccccc1)C(O)(CCN(C)C)c1cccc(F)c1` (racemic) [Compound 94] returned an MIC in experiment [1] of 1.77 microgram/ml. The compound further registered a pIC50 in the experiment on M. Smegmatis ATCC607 of 7.9.

For `COc1nc2ccc(Br)cc2cc1C(c1ccccc1)C(O)(CCc1ccccc1)CCN(C)C` (racemic) [Compound 95], the MIC in experiment [1] came to 16.87 microgram/ml. For the same compound, in the experiment on M. Smegmatis ATCC607, the pIC50 stood at 6.9.

`COc1nc2ccc(Br)cc2cc1C(c1ccccc1)C(O)(CC[N+](C)(C)[O-])c1cccc2ccccc12` (racemic) [Compound 101] yielded an MIC in experiment [1] of 9.06 microgram/ml. Moreover, the pIC50 in the experiment on M. Smegmatis ATCC607 worked out at 5.8.

For the compound `COc1nc2ccc(Br)cc2cc1C(c1ccccc1)C(O)(CC[N+](C)(C)C)c1cccc2ccccc12.[I-]` (racemic) [Compound 103], the MIC in experiment [1] is reported as 5.54 microgram/ml. For the same compound, the pIC50 with M. Smegmatis ATCC607 stood at 5.9.

Compound `COc1nc2ccc(Br)cc2cc1C(c1ccccc1)C(O)(CCN1CCOCC1)c1ccccc1` (racemic) [Compound 123] came in with an MIC in experiment [1] of 54.75 microgram/ml. This compound had a pIC50 in the experiment with M. Smegmatis ATCC607 of 4.2.

Regarding `COc1nc2ccc(Br)cc2cc1C(c1ccccc1)C(O)(CCN1CCOCC1)c1ccccc1` (racemic) [Compound 124], the MIC in experiment [1] is 54.75 microgram/ml. For the same compound, the pIC50 in the experiment with M. Smegmatis ATCC607 is given as 5.3.

Take `COc1nc2ccc(Br)cc2cc1C(c1ccccc1)C(O)(CCN1CCN(C)CC1)c1ccc2ccccc2c1` (racemic) [Compound 136]: in experiment [1], the MIC is given as 16.81 microgram/ml. In addition, in the experiment on M. Smegmatis ATCC607, the pIC50 was found to be 6.2.

In turn, `COc1nc2ccc(Br)cc2cc1C(c1ccccc1)C(O)(CCN1CCN(C)CC1)c1ccc2ccccc2c1` (racemic) [Compound 137] showed an MIC in experiment [1] of 42.23 microgram/ml. The pIC50 in the experiment with M. Smegmatis ATCC607 is recorded as 4.6.

`COc1nc2ccc(Br)cc2cc1C(c1ccccc1)C(O)(CCN(C)C)c1ccc(F)c(F)c1` (racemic) [Compound 195]: in experiment [1], the MIC is 6.82 microgram/ml. This compound returned a pIC50 with M. Smegmatis ATCC607 of 6.5.

In experiment [1], `COc1nc2ccc(Br)cc2cc1C(c1ccccc1)C(O)(CCN(C)C)c1ccc(F)c(F)c1` (racemic) [Compound 196] gave an MIC of 1.71 microgram/ml. Moreover, the pIC50 in the experiment on M. Smegmatis ATCC607 is 6.6.

In turn, `COc1nc2ccc(Br)cc2cc1C(c1ccc(F)cc1)C(O)(CCN(C)C)c1cccc2ccccc12` (racemic) [Compound 205] yielded an MIC in experiment [1] of 4.56 microgram/ml. Besides, the pIC50 in the experiment on M. Smegmatis ATCC607 was 7.2.

Turning to `COc1nc2ccc(Br)cc2cc1C(c1ccc(F)cc1)C(O)(CCN(C)C)c1cccc2ccccc12` (racemic) [Compound 206], the MIC in experiment [1] was found to be 9.09 microgram/ml. Moreover, the pIC50 in the experiment with M. Smegmatis ATCC607 worked out at 6.5.

With `COc1nc2ccc(F)cc2cc1C(c1ccccc1)C(O)(CCN(C)C)c1cc(F)cc(F)c1` (racemic) [Compound 207], the MIC in experiment [1] was determined as 48.05 microgram/ml. This compound returned a pIC50 in the experiment on M. Smegmatis ATCC607 of 5.2.

`COc1nc2ccc(F)cc2cc1C(c1ccccc1)C(O)(CCN(C)C)c1cc(F)cc(F)c1` (racemic) [Compound 208] had an MIC in experiment [1] of 0.38 microgram/ml. This compound displayed a pIC50 in the experiment on M. Smegmatis ATCC607 of 7.9.

`COc1nc2ccc(Br)cc2cc1C(c1ccccc1)C(O)(CCN(C)C)c1ccc(Cl)cc1` (single isomer, unassigned) [Compound 16] showed an MIC in experiment [1] of 0.34 microgram/ml. In addition, the pIC50 in the experiment on M. Smegmatis ATCC607 stood at 6.8.

As to `COc1nc2ccc(Br)cc2cc1C(c1ccccc1)C(O)(CCN(C)C)c1ccc(Cl)cc1` (single isomer, unassigned) [Compound 17], in experiment [1], the MIC was 1.71 microgram/ml. In addition, the pIC50 in the experiment with M. Smegmatis ATCC607 is reported as 6.5.

In experiment [1], `COc1nc2ccc(Br)cc2cc1C(c1ccccc1)C(O)(CCN(C)C)c1cccs1` (single isomer, unassigned) [Compound 20] came in with an MIC of 40.63 microgram/ml. In addition, in the experiment on M. Smegmatis ATCC607, the pIC50 worked out at 5.9.

In experiment [1], `COc1nc2ccc(Br)cc2cc1C(c1ccccc1)C(O)(CCN(C)C)c1cccs1` (single isomer, unassigned) [Compound 21] had an MIC of 16.17 microgram/ml. Moreover, the pIC50 in the experiment with M. Smegmatis ATCC607 came out at 5.4.

With `COc1nc2ccc(C)cc2cc1C(c1ccccc1)C(O)(CCN(C)C)c1ccccc1` (single isomer, unassigned) [Compound 22], the MIC in experiment [1] came out at 1.11 microgram/ml. The compound further gave a negative logarithm of the IC50 (pIC50) in the experiment with M. Smegmatis ATCC607 of 7.2.

In experiment [1], `COc1nc2ccc(C)cc2cc1C(c1ccccc1)C(O)(CCN(C)C)c1ccccc1` (single isomer, unassigned) [Compound 23] displayed an MIC of 8.79 microgram/ml. Besides, the pIC50 in the experiment on M. Smegmatis ATCC607 came to 6.4.

`COc1nc2ccc(Br)cc2cc1C(c1ccccc1)C(O)(CCN(C)C)c1ccsc1` (single isomer, unassigned) [Compound 24]: the MIC in experiment [1] is listed as 1.62 microgram/ml. Besides, the pIC50 with M. Smegmatis ATCC607 came out at 7.2.

`COc1nc2ccc(Br)cc2cc1C(c1ccccc1)C(O)(CCN(C)C)c1ccsc1` (single isomer, unassigned) [Compound 25] displayed an MIC in experiment [1] of 20.36 microgram/ml. Moreover, the negative-log IC50 (pIC50) with M. Smegmatis ATCC607 is 5.2.

With `COc1nc2ccc(-c3ccccc3)cc2cc1C(c1ccccc1)C(O)(CCN(C)C)c1ccccc1` (single isomer, unassigned) [Compound 26], in experiment [1], the MIC is listed as 1.00 microgram/ml. The pIC50 in the experiment with M. Smegmatis ATCC607 came to 7.2.

Regarding `COc1nc2ccc(-c3ccccc3)cc2cc1C(c1ccccc1)C(O)(CCN(C)C)c1ccccc1` (single isomer, unassigned) [Compound 27], in experiment [1], the MIC is 7.97 microgram/ml. In the experiment on M. Smegmatis ATCC607, this compound had a pIC50 of 5.9.

Consider `COc1nc2ccc(F)cc2cc1C(c1ccccc1)C(O)(CCN(C)C)c1ccccc1` (single isomer, unassigned) [Compound 28], for which the MIC in experiment [1] came to 1.41 microgram/ml. This compound came in with a pIC50 with M. Smegmatis ATCC607 of 7.3.

In the case of `COc1nc2ccc(F)cc2cc1C(c1ccccc1)C(O)(CCN(C)C)c1ccccc1` (single isomer, unassigned) [Compound 29], the MIC in experiment [1] was 44.46 microgram/ml. The compound further registered a pIC50 in the experiment with M. Smegmatis ATCC607 of 5.9.

Consider `COc1nc2ccc(Cl)cc2cc1C(c1ccccc1)C(O)(CCN(C)C)c1ccccc1` (single isomer, unassigned) [Compound 30], for which the MIC in experiment [1] came to 1.46 microgram/ml. Further, the pIC50 in the experiment on M. Smegmatis ATCC607 came out at 7.8.

`COc1nc2ccc(Cl)cc2cc1C(c1ccccc1)C(O)(CCN(C)C)c1ccccc1` (single isomer, unassigned) [Compound 31] came in with an MIC in experiment [1] of 7.31 microgram/ml. Moreover, the negative-log IC50 (pIC50) with M. Smegmatis ATCC607 stood at 5.8.

For `CSc1nc2ccc(Br)cc2cc1C(c1ccccc1)C(O)(CCN(C)C)c1ccccc1` (single isomer, unassigned) [Compound 32], in experiment [1], the MIC is given as 0.33 microgram/ml. Further, the pIC50 in the experiment on M. Smegmatis ATCC607 worked out at 7.4.

Compound `CSc1nc2ccc(Br)cc2cc1C(c1ccccc1)C(O)(CCN(C)C)c1ccccc1` (single isomer, unassigned) [Compound 33] showed an MIC in experiment [1] of 8.27 microgram/ml. In the experiment with M. Smegmatis ATCC607, this compound displayed a pIC50 of 6.0.

In turn, `COc1ccc2nc(OC)c(C(c3ccccc3)C(O)(CCN(C)C)c3ccccc3)cc2c1` (single isomer, unassigned) [Compound 34] came in with an MIC in experiment [1] of 45.66 microgram/ml. In the experiment on M. Smegmatis ATCC607, this compound displayed a negative logarithm of the IC50 (pIC50) of 5.1.

Compound `COc1ccc2nc(OC)c(C(c3ccccc3)C(O)(CCN(C)C)c3ccccc3)cc2c1` (single isomer, unassigned) [Compound 35] showed an MIC in experiment [1] of 1.82 microgram/ml. Besides, the pIC50 with M. Smegmatis ATCC607 came out at 6.8.

Turning to `COc1nc2ccc(Br)cc2cc1C(c1ccc(Cl)cc1)C(O)(CCN(C)C)c1ccccc1` (single isomer, unassigned) [Compound 36], the MIC in experiment [1] is given as 5.40 microgram/ml. Moreover, the pIC50 with M. Smegmatis ATCC607 stood at 6.4.

Consider `COc1nc2ccc(Br)cc2cc1C(c1ccc(Cl)cc1)C(O)(CCN(C)C)c1ccccc1` (single isomer, unassigned) [Compound 37], for which the MIC in experiment [1] turned out to be 0.34 microgram/ml. Also, in the experiment with M. Smegmatis ATCC607, the pIC50 is given as 7.9.

`COc1nc2ccccc2cc1C(c1ccccc1)C(O)(CCN(C)C)c1ccccc1` (single isomer, unassigned) [Compound 40] came in with an MIC in experiment [1] of 21.38 microgram/ml. The compound also returned a pIC50 in the experiment on M. Smegmatis ATCC607 of 4.7.

Compound `COc1nc2ccccc2cc1C(c1ccccc1)C(O)(CCN(C)C)c1ccccc1` (single isomer, unassigned) [Compound 41] returned an MIC in experiment [1] of 8.51 microgram/ml. Further, the pIC50 in the experiment with M. Smegmatis ATCC607 is listed as 5.9.

`COc1nc2ccccc2cc1C(c1ccccc1)C(C)(O)CCN(C)C` (single isomer, unassigned) [Compound 42] had an MIC in experiment [1] of 44.34 microgram/ml. For the same compound, the pIC50 in the experiment with M. Smegmatis ATCC607 came out at 6.3.

As for `COc1nc2ccccc2cc1C(c1ccccc1)C(C)(O)CCN(C)C` (single isomer, unassigned) [Compound 43], in experiment [1], the MIC is 44.34 microgram/ml. In the experiment with M. Smegmatis ATCC607, this compound returned a pIC50 of 4.4.
